Results reported in ChEMBL document CHEMBL5113515, “The Discovery of GSK3640254, a Next-Generation Inhibitor of HIV-1 Maturation” (J Med Chem, 2022).

Columns and labels:
Cytochrome P450 2B6 = biological target: T1, Cytochrome P450 2B6 (Homo sapiens, UniProt P20813); assay: Inhibition of CYP2B6 (unknown origin); format: ADME
T1 sequence (P20813 whole entry): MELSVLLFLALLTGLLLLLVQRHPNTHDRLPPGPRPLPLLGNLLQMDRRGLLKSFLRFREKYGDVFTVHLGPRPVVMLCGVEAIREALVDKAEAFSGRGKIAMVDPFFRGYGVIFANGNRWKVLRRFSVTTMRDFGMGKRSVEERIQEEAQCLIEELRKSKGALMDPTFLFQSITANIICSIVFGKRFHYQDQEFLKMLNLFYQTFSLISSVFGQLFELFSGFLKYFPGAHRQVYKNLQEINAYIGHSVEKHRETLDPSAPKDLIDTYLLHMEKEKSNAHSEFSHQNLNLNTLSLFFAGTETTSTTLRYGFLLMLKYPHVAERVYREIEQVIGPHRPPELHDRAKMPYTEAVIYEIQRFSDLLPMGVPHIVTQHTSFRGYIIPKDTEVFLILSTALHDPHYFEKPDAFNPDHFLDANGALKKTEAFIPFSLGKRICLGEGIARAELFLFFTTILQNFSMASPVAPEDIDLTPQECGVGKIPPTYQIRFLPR

[1] = Binding affinity to HIV1 wild type Gag assessed as dissociation constant; parameters: species or system Human immunodeficiency virus 1
[2] = Cmax in overnight fasted cynomolgus monkey at 2 mg/kg, po or 1 mg/kg, iv; format: ADME, organism-based, Macaca fascicularis; parameters: dose 2 mg/kg, route po; conditions: in vivo
[3] = Plasma protein binding in human by ultracentrifugation; format: ADME, cell-free; conditions: read-out: PPB (converted)
[4] = system: Human immunodeficiency virus 1; assay: Antiviral activity against HIV1 harbouring deltaV370/T371A mutant infected in human MT2 cells measured after 4 to 5 days by dual-luciferase reporter assay; format: functional, organism-based; conditions: mt2
CYP2B6 = biological target: T2, CYP2B6 (Homo sapiens, UniProt P20813); assay: Induction of CYP2B6 in human hepatocyte; format: ADME, cell-based; conditions: hepatocytes
T2 sequence (P20813 whole entry): T1 sequence (P20813 whole entry)

[5] = Lipophilicity, log D of the compound at pH 6.5; format: physicochemical; conditions: buffer
Cytochrome P450 2D6 = Cytochrome P450 2D6 (Homo sapiens, UniProt P10635); assay: Inhibition of CYP2D6 (unknown origin); format: ADME
CYP1A2 = biological target: T3, CYP1A2 (Homo sapiens, UniProt P05177); assay: Induction of CYP1A2 in human hepatocyte; format: ADME, cell-based; conditions: hepatocytes
T3 sequence (P05177 whole entry): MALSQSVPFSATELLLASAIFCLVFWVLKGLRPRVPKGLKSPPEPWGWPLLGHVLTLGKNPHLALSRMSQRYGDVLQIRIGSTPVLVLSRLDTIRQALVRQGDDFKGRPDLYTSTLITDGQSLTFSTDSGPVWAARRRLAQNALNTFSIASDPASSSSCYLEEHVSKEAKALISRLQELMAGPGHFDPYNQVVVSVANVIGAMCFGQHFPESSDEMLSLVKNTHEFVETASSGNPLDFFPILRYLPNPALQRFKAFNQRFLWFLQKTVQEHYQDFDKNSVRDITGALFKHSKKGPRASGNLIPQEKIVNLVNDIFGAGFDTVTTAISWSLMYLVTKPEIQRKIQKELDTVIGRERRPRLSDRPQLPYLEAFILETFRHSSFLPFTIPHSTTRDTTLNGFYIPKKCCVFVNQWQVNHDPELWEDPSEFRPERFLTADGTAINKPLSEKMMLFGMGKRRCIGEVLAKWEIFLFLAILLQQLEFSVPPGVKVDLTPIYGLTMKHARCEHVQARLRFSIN

[6] = Cmax in overnight fasted Beagle dog at 2 mg/kg, po or 1 mg/kg, iv; format: ADME, organism-based, Canis lupus familiaris; parameters: dose 2 mg/kg, route po; conditions: in vivo
Cytochrome P450 2C8 = biological target: T4, Cytochrome P450 2C8 (Homo sapiens, UniProt P10632); assay: Inhibition of CYP2C8 (unknown origin); format: ADME
T4 sequence (P10632 whole entry): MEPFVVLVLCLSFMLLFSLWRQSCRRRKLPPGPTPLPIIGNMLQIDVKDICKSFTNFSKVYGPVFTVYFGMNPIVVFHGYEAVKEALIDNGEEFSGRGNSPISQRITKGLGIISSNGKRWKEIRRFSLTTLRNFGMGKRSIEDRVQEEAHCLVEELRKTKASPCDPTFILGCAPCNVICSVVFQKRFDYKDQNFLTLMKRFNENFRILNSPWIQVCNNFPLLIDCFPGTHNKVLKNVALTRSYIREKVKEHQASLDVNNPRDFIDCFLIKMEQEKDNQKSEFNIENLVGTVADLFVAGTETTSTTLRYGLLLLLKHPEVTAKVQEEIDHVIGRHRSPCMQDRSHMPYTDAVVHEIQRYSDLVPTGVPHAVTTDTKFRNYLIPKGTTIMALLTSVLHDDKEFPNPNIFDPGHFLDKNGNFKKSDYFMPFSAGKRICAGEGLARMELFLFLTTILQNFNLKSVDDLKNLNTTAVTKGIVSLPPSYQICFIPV

[7] = Oral bioavailability in overnight fasted cynomolgus monkey using spray-dried dispersion at 2 mg/kg; format: ADME, organism-based, Macaca fascicularis; conditions: in vivo
[8] = system: Human immunodeficiency virus 1; assay: Antiviral activity against HIV1 wild type NL (4 to 3) infected in human MT2 cells measured after 4 to 5 days in presence of human serum by dual-luciferase reporter assay; format: functional, organism-based; conditions: mt2
[9] = system: Human immunodeficiency virus 1; assay: Antiviral activity against HIV1 NL (4 to 3) harbouring V362I mutant transfected in human HEK293T cells by dual-luciferase reporter assay; format: functional, organism-based; conditions: Human immunodeficiency virus 1, HEK-293T
[10] = Half life in overnight fasted Sprague-Dawley rat at 1 mg/kg, iv; format: ADME, organism-based; conditions: in vivo
[11] = AUC(0 to t) in overnight fasted Sprague-Dawley rat at 5 mg/kg, po or 1 mg/kg, iv; format: ADME, organism-based; parameters: dose 5 mg/kg, route po; conditions: in vivo
[12] = AUC(0 to t) in overnight fasted Beagle dog at 2 mg/kg, po or 1 mg/kg, iv; format: ADME, organism-based, Canis lupus familiaris; parameters: dose 2 mg/kg, route po; conditions: in vivo
[13] = Metabolic stability in rat liver microsomes assessed as half life in presence of NADPH at 0.5 uM by LC-MS/MS analysis; format: ADME, Microsome
[14] = Oral bioavailability in overnight fasted mouse using spray-dried dispersion at 5 mg/kg; format: ADME, organism-based; conditions: in vivo
[15] = Half life in human liver microsomes at […] measured upto 300 mins by LC-MS/MS analysis; format: ADME, Microsome
[16] = Volume of distribution at steady state in overnight fasted Beagle dog at 2 mg/kg, po or 1 mg/kg, iv; format: ADME, organism-based, Canis lupus familiaris; conditions: in vivo
[17] = Cmax in overnight fasted Sprague-Dawley rat at 5 mg/kg, po or 1 mg/kg, iv; format: ADME, organism-based; parameters: dose 5 mg/kg, route po; conditions: in vivo
[18] = system: Human immunodeficiency virus 1; assay: Antiviral activity against HIV1 wild type subtype B NL (4 to 3) harbouring V362/Q369/V370/T371 transfected in human HEK293T cells by dual-luciferase reporter assay; format: functional, organism-based; conditions: Human immunodeficiency virus 1, HEK-293T
[19] = Half life in overnight fasted cynomolgus monkey at 1 mg/kg, iv; format: ADME, organism-based, Macaca fascicularis; conditions: in vivo

Sequence of Cytochrome P450 2D6 (P10635 whole entry): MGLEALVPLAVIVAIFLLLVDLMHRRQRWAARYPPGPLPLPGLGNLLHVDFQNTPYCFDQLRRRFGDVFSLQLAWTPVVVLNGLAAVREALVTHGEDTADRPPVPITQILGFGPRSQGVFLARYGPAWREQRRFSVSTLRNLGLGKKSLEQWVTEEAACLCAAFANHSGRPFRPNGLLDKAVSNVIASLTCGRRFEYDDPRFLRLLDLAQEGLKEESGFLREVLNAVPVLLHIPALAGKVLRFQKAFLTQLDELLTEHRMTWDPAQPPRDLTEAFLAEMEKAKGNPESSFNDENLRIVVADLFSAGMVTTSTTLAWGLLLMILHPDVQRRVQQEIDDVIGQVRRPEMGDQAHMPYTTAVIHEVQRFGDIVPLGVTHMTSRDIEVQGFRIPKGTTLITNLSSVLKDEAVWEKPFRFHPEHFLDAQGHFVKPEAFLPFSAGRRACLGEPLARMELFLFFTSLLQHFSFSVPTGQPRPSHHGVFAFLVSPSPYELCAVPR

C=C(C)[C@@H]1CC[C@]2(NCCN3CCS(=O)(=O)CC3)CC[C@]3(C)[C@H](CC[C@@H]4[C@@]5(C)CC=C(C6=CC[C@@](CF)(C(=O)O)CC6)C(C)(C)[C@@H]5CC[C@]43C)[C@@H]12 [FIPRAVIRIMAT]
IC50 (Cytochrome P450 2B6): > 13300 nM
Kd [1]: 1.4 nM
Cmax [2]: 800 nM
fraction unbound [3]: 0.14
EC50 [4]: 3.6 nM
EC50 (CYP2B6): > 5000 nM
logD [5]: 4.9
IC50 (Cytochrome P450 2D6): > 13300 nM
EC50 (CYP1A2): > 5000 nM
Cmax [6]: 4300 nM
IC50 (Cytochrome P450 2C8): > 13300 nM
bioavailability [7]: 28%
EC50 [8]: 13.9 nM
EC50 [9]: 2.7 nM
half-life [10]: 4 h
AUC(0-t) [11]: 7.4 µM·h
AUCt [12]: 4.3 µM·h
half-life at 0.5 µM [13]: 1.5 h
bioavailability [14]: 91%
half-life [15]: > 24 h
Vdss [16]: 0.49 L/kg
Cmax [17]: 900 nM
EC50 [18]: 1.1 nM
half-life [19]: 5.3 h
